Results as given in patent publication US9346741B2, “Polyamine transport selective therapeutic agents with enhanced stability” (University of Central Florida Research Foundation, Inc., priority 2012, dated 2016).
Entries after “also recorded” stand apart in the source; their conditions may differ. Read-outs that look alike come from different tables or passages of the source.

Columns and labels:
[1] = system: MALME-3 cells; experiment: Cytotoxicity IC50 determination (MTS) in MALME-3 cells; type: cell-based, human; conditions: for IC50: 96 h at 37° C., 1 mM AG, 10% FBS
Protocol: Armed with this insight, compounds 5a-8b were evaluated in the MALME-3M (melanoma) cell line and its non-cancerous counterpart MALME-3 obtained originally from the same patient. These matched cell lines provided a method to assess PTS selectivity for the cancer line (MALME-3M) over the non-cancerous cell line (MALME-3).
(§1) CHO and CHO-MG cells were grown in RPMI 1640 medium supplemented with 10% fetal calf serum and 1% penicillin/streptomycin. Note: the media must contain L-proline (2 μg/mL) for proper growth of the CHO-MG cells. MALME-3M cells were grown in RPMI 1640 medium supplemented with 10% FBS and 1% penicillin/streptomycin. All cells were grown at 37° C. under a humidified 5% CO2 atmosphere Aminoguanidine (1 mM) was added to the growth medium to prevent oxidation of the drugs by the enzyme (bovine serum amine oxidase) present in calf serum. Cells in early to mid-log phase were used.
(§2) Cell growth was assayed in sterile 96-well microtiter plates (Costar 3599, Corning, N.Y., USA). CHO and CHO-MG* cells were plated at 10,000 cells/mL. MALME-3M and MALME-3 cells were plated at 5,000 cells/mL. Drug solutions (10 μL per well) of appropriate concentration were added after an overnight incubation for each CHO cell line (90 μL). 48 h MALME-3M experiments were conducted using 10% Nu-Serum IV, and 96 h MALME-3M and MALME-3 experiments were conducted using 10% FBS. After exposure to the drug for 48 h (CHO, CHO-MG*, and MALME-3M) or 96 h (MALME-3M and MALME-3), cell growth was determined by measuring formazan
(§3) formation from 3-(4,5-dimethylthiazol-2-yl)-5-(3-carboxymethoxyphenyl)-2-(4-sulphenyl)-2H-tetrazolium) inner salt (MTS) using a SynergyMx Biotek microplate reader for absorbance ([…]) measurements.^24

[2] = system: MALME-3M cells; experiment: Cytotoxicity IC50 determination (MTS) in MALME-3M cells; type: cell-based, human
Protocol: Armed with this insight, compounds 5a-8b were evaluated in the MALME-3M (melanoma) cell line and its non-cancerous counterpart MALME-3 obtained originally from the same patient. These matched cell lines provided a method to assess PTS selectivity for the cancer line (MALME-3M) over the non-cancerous cell line (MALME-3). […]
as §1, §2, §3

[3] = system: CHO-MG* cells; experiment: Cytotoxicity IC50 determination (MTS) in polyamine-transport-deficient CHO-MG* cells; type: cell-based, Chinese hamster; conditions: 48 h at 37° C.
From the text: (§4) CHO cells were chosen along with a mutant cell line (CHO-MG*) to comment on how the synthetic conjugates gain access to the cells.^2c-e, 6 As discussed earlier, the CHO-MG cell line is polyamine-transport deficient and represents a model for alternative modes of entry (other than PTS) including passive diffusion or use of another transporter. The CHO cell line on the other hand, represents cells with high polyamine transport activity.^7, 10c A comparison of toxicity in these two CHO cell lines allowed for a screen that would detect selective use of the polyamine transporter. This is seen where high utilization of the PTS would be very toxic to CHO cells, however, there would not be the same level of toxicity found in CHO-MG cells.^2c-e, 6 Ultimately, a CHO-MG/CHO IC50 can be determined where a high ratio would be achieved for highly PTS selective compounds.
(§5) CHO and CHO-MG cells were grown in RPMI 1640 medium supplemented with 10% fetal calf serum and 1% penicillin/streptomycin. Note: the media must contain L-proline (2 μg/mL) for proper growth of the CHO-MG cells. MALME-3M cells were grown in RPMI 1640 medium supplemented with 10% FBS and 1% penicillin/streptomycin. […] Cells in early to mid-log phase were used.
as §2, §3

[4] = system: polyamine transport system (PTS), CHO-MG* vs CHO cells; experiment: CHO-MG*/CHO IC50 ratio, a measure of PTS selectivity; type: cell-based, Chinese hamster; conditions: 48 h; for IC50 ratio w/AG (CHO-MG*/CHO): with 1 mM AG; for IC50 ratio w/o AG (CHO-MG*/CHO): without AG
From the text: Compounds with high CHO-MG/CHO IC50 ratios are considered PTS selective.
as §4

[5] = system: MALME-3M (melanoma) vs MALME-3 (normal) cells; experiment: MALME-3/MALME-3M IC50 ratio, a measure of selectivity; type: cell-based, human; conditions: 96 h; 1 mM AG
From the text: These matched cell lines provided a method to assess PTS selectivity for the cancer line (MALME-3M) over the non-cancerous cell line (MALME-3).

[6] = system: CHO cells; experiment: in vitro; type: cell-based; conditions: for IC50: 48 h at 37° C.
From the text: as §4, §5, §2, §3

[7] = system: polyamine transport system (PTS) in L1210 cells; conditions: cited from earlier work
[8] = system: 60 human cancer cell lines; experiment: NCI 60 cell-line screen; type: cell-based; conditions: 48 h
Protocol: Once compounds 6a-b, 7a-b, and 8a-8b were evaluated in CHO and CHO-MG*, these compounds were sent to the National Cancer institute (NCI) to conduct its 60 cell-line screen to determine if these compounds could also be potent anti-cancer agents for human cancer cell lines. […] As shown in FIGS. 2A-2C, dose response curves were generated based upon the 60 cell-line screen at different molar concentrations of each PTS targeting agent 6b, 7b, and 8b.
To generate FIGS. 2A-2C, the respective drug was dosed at 10 μM into each human cancer cell line and cell viability was assessed after a 48 h incubation at 37° C. in an environment of 5% CO2, 95% air and 100% relative humidity. A more descriptive methodology can be found at the NCI website: http://dtp.nci.nih.gov/branches/btb/ivclsp.html. Cell lines which gave bar graphs which extend to the right of the central line were more sensitive to the drug than cell lines which extended to the left of the center line.

[9] = system: 60 human cancer cell lines; experiment: NCI 60 cell-line screen; type: cell-based; conditions: 5-dose assay
[10] = 1 mM AG 24 h prior to drug addition, read-out: CHO-MG* IC50 (μM) w/AG
[11] = without AG, read-out: CHO-MG* IC50 (μM) w/o AG
[12] = 1 mM AG 24 h prior to drug addition, read-out: CHO IC50 (μM) w/AG
[13] = without AG, read-out: CHO IC50 (μM) w/o AG
[14] = 48 h at 37° C., 1 mM AG, 10% Nu-Serum IV, read-out: MALME-3M IC50 (μM) w/ AG
[15] = 48 h at 37° C., without AG, 10% Nu-Serum IV, read-out: MALME-3M IC50 (μM) w/o AG
[16] = 96 h at 37° C., 1 mM AG, 10% FBS, read-out: MALME-3M IC50

Row | SMILES | IC50 [1] | IC50 [3, 10] | IC50 [3, 11] | IC50 ratio w/AG (CHO-MG*/CHO) [4] | IC50 ratio w/o AG (CHO-MG*/CHO) [4] | MALME-3/MALME-3M IC50 ratio [5] | IC50 [6, 12] | IC50 [6, 13] | IC50 [2, 14] | IC50 [2, 15] | IC50 [2, 16] | Ki ([7]; read-out: Ki in L1210 cells) | other results
1 | N=C(N)NN [AG, aminoguanidine, reference compound] |  |  |  |  |  |  |  |  |  |  |  |  | toxicity of 1 mM AG in MALME-3 cells ([1]; 1 mM): ^b1 mM AG was determined to be non-toxic and incubated with MALME-3M and MALME-3 cells for 24 h prior to drug addition.; toxicity of 1 mM AG in MALME-3M cells ([2]; 1 mM): ^b1 mM AG was determined to be non-toxic and incubated with MALME-3M and MALME-3 cells for 24 h prior to drug addition; also recorded: ^b1 mM AG was determined to be non-toxic and incubated with MALME-3M cells for 24 h prior to drug addition
2 | CNCCCCNCCCCNCc1c2ccccc2cc2ccccc12 [Compound 5b] | 620 nM | 10.7 µM | 11.3 µM | 3.8 | 5.4 | 1.4 | 2.8 µM | 2.1 µM | 0.6 µM | 0.62 µM | 0.45 µM |  | 
3 | NCCCCNCCCCNCc1c2ccccc2c(CNCCCCNCCCCN)c2ccccc12 [Compound 6a] | 690 nM | > 100 µM | 8.4 µM | >3571 | 2.1 | 41 | 0.028 µM | 4 µM | 0.088 µM | 0.29 µM | 0.017 µM | 390 nM | 
4 | CNCCCCNCCCCNCc1c2ccccc2c(CNCCCCNCCCCNC)c2ccccc12 [Compound 6b, N1,N1′-(Anthracene-9,10-diylbis(methylene))bis(N4-(4-(methylamino)butyl)butane-1,4-diamine)] |  |  |  | >1204 | >1190 | 16 |  |  |  |  |  |  | IC50 ([1]; Homo sapiens, MALME-3): 1000 nM; IC50 ([3]; Cricetulus griseus, CHO-MG, 1 mM AG 24 h prior to drug addition, read-out: CHO-MG* IC50 (μM) w/AG): > 100 µM; IC50 ([3]; Cricetulus griseus, CHO-MG, without AG, read-out: CHO-MG* IC50 (μM) w/o AG): > 100 µM; effect on breast cancer cell lines in the NCI 60 cell-line screen ([8]; 10 μM): exhibited an anti-proliferation effect in breast cancer cell lines, particularly the T-47D cell line; effect on melanoma cell lines in the NCI 60 cell-line screen ([8]; 10 μM): inhibited the proliferation of melanoma cell lines, particularly the MALME-3M cell line; NCI 60 cell-line screen, overall result ([8]; no AG): cell-targeting specificity, especially for the MALME-3M cell line; NCI 5-dose assay, MALME-3M cell line [9]: dose dependent response; IC50 ([6]; Cricetulus griseus, CHO, 1 mM AG 24 h prior to drug addition, read-out: CHO IC50 (μM) w/AG): 0.083 µM; IC50 ([6]; Cricetulus griseus, CHO, without AG, read-out: CHO IC50 (μM) w/o AG): 0.084 µM; IC50 ([2]; Homo sapiens, Malme-3M, 48 h at 37° C., 1 mM AG, 10% Nu-Serum IV, read-out: MALME-3M IC50 (μM) w/ AG): 0.13 µM; IC50 ([2]; Homo sapiens, Malme-3M, 48 h at 37° C., without AG, 10% Nu-Serum IV, read-out: MALME-3M IC50 (μM) w/o AG): 0.16 µM; IC50 ([2]; Homo sapiens, Malme-3M, 96 h at 37° C., 1 mM AG, 10% FBS, read-out: MALME-3M IC50): 0.062 µM
5 | NCCCCNCCCCNCc1ccc(CNCCCCNCCCCN)c2ccccc12 [Compound 7a] | 1270 nM | > 100 µM | 52.1 µM | >4545 | 9.5 | 71 | 0.022 µM | 5.5 µM | 0.043 µM | 0.43 µM | 0.018 µM | 170 nM | 
6 | NCCCCNCCCCNCc1cc(CNCCCCNCCCCN)cc(CNCCCCNCCCCN)c1 [Compound 32, reference compound] |  |  |  | 1 |  |  |  |  |  |  |  |  | IC50 ([3]; Cricetulus griseus, CHO-MG, Table 4, 1 mM AG 24 h prior to drug addition, read-out: CHO-MG* IC50): > 100 µM; Ki ([7]; unit inferred, read-out: Ki values in L1210 cells): 520 ± 110 nM; fold less toxic than 34a in the CHO cell line ([6]; CHO, versus 34a): > 3500 fold; IC50 ([6]; Cricetulus griseus, CHO, Table 4, 1 mM AG 24 h prior to drug addition, read-out: CHO IC50): > 100 µM; MTD (μM) in CHO (maximum tolerated dose) ([6]; hamster): 80 µM
7 | NCCCCNCCCN [Spermidine, spermidine, reference compound] |  |  |  |  |  |  |  |  |  |  |  | 2460 nM | non-toxic concentration in MALME-3 ([1]; spermidine alone): up to 100 μM; non-toxic concentration in MALME-3M ([2]; spermidine alone): up to 100 μM
